In patent US7745646B2, “Bicyclic heteroaryl inhibitors of PDE4” (Kalypsys, Inc., priority 2006, dated 2010):

Key:
[1] = tested on: Lacrimal Gland Inflammation-Induced Dry Eye in Rabbits; test: Lacrimal Gland Inflammation-Induced Dry Eye in Rabbits; type: in vivo; details: 1 percent, topical ocular BID, rabbit dry eye
Description: A more detailed description of the assay used herein may be found in Naglehout, T J et al. 2005, “Preservation of Tear Film Integrity and Inhibition of Corneal Injury by Dexamethasone in a Rabbit Model of Lacrimal Gland Inflammation-Induced Dry Eye,” J. Ocular Pharm. Ther., 21:2. 139-148, the disclosure of which is hereby incorporated by reference as if written herein in its entirety.
Rabbits (n=4/group) were randomized into treatment groups and dosed topically BID with maxidex vehicle or test drug beginning one day prior to initiation of dry eye. Each rabbit received bilateral lacrimal gland injections of saline or ConA (300 μg/30 μl) and topical ocular dosing was continued BID throughout the study.
Desiccation was initiated 1-2 hours following lacrimal gland injection by placing conscious rabbits in the environmental chamber (10-15% humidity/72° F.). […] Absorbance of the extracted dye was determined at 660 nm.
TBUT was quantified in a separate group of treated animals. TBUT was determined by instilling 5 μL sodium fluorescein into the cul de sac and manually blinking the lids to distribute the fluorescein within the tear film. Under slit lamp observation, the eye was held open and the time whereby one or more black spots or streaks appeared in the precorneal tear film was recorded. […]

PDE4B = target: T1, PDE4B (Homo sapiens, UniProt Q07343); test: Novel coupled PDE/AK bioluminescent assay, PDE4B inhibition; type: biochemical; details: PDE4B catalytic domain
T1 construct: hex-histidine (His6) (N); made in house
T1 sequence (Q07343 330-659 limits assumed, species assumed): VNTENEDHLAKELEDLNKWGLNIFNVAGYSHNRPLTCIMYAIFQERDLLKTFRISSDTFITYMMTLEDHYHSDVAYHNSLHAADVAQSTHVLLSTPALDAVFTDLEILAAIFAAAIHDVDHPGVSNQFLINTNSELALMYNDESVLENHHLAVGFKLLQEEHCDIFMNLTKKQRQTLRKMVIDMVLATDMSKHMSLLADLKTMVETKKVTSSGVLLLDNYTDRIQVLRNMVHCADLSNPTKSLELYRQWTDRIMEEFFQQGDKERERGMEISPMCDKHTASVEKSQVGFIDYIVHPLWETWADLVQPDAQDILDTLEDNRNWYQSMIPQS

| SMILES | Activity at Percent Concentration Tested [1] | IC50 (PDE4B) |
| --- | --- | --- |
| COc1ccc2c(Nc3c(Cl)cncc3Cl)cc(=O)oc2c1OC1CCCC1 [Example 3, 8-(Cyclopentyloxy)-4-(3,5-dichloropyridin-4-ylamino)-7-methoxy-2H-chromen-2-one] | Inactive | < 1000 nM |
| COc1ccc2c(Nc3c(Cl)cncc3Cl)cc(=O)oc2c1OCC1CC1 [Example 5, 8-(Cyclopropylmethoxy)-4-(3,5-dichloropyridin-4-ylamino)-7-methoxy-2H-chromen-2-one] | Inactive | < 1000 nM |
